Consider one compound from patent US20180353472A1, “UNIT DOSE FORMULATIONS FOR USE AS AN ANTI-FUGETACTIC AGENT” (THE GENERAL HOSPITAL CORPORATION d.b.a MASSACHUSETTS …, priority 2015, published 2018).

The subject of experiment [1] is tumor that expresses high levels of CXCL12. As to conditions: mice, subcutaneous, dose between 0.000001% and 65% of the dose appropriate for recruiting stem cells, once a day for 5 days; assessed one to three days after final dose. As to the method: Mice are injected with tumor cells (subcutaneous injection) from a tumor that expresses high levels of CXCL12 and a tumor is allowed to develop.
One to three days after the final AMD3100 dose, mice are assessed for tumor growth and the reduction or knock down of fugetaxis.

Experiment [2] concerns breast cancer tumor which over-expresses CXCL12. The conditions noted are these: human patient, dose between 0.000001% and 65% of the dose appropriate for recruiting stem cells, once a day for five days, optionally followed by a chemotherapeutic drug. As to the method:
A human patient with a breast cancer tumor which over-expresses CXCL12 is administered AMD3100 at a dose between 0.000001% and 65% of the dose appropriate for recruiting stem cells once a day for five days, optionally followed by a chemotherapeutic drug.

In the case of `c1cc(CN2CCCNCCNCCCNCC2)ccc1CN1CCCNCCNCCCNCC1` [AMD3100, 1, 1′-[1,4-phenylenebis (methylene)]-bis-1,4,8,11-tetraazacyclotetradecane], in experiment [1], the “anti-fugetactic effect (reduction or knock down of fugetaxis)” value is recorded as “will have an anti-fugetactic effect”. Further, in experiment [2], the “T cell recruitment into the tumor” value is “increased T cell recruitment into the tumor”, the patient survival result is “increase in patient survival” and the tumor volume entry is given as “decrease in tumor volume”.
